This note sets out measurements from PMC7312762, “Acetylcholinesterase Inhibition of Diversely Functionalized Quinolinones for Alzheimer’s Disease Therapy” (International Journal of Molecular Sciences, 2020).

Holding throughout (type): biochemical
For assay [1], the target named is T1, human recombinant acetylcholinesterase (hrAChE) (Homo sapiens, UniProt P22303).
T1 construct: made in house; host or cells: Hek293 derivatives (transient transfection, pcDNA3.4), collected from culture supernatant
T1 sequence (P22303 32-614): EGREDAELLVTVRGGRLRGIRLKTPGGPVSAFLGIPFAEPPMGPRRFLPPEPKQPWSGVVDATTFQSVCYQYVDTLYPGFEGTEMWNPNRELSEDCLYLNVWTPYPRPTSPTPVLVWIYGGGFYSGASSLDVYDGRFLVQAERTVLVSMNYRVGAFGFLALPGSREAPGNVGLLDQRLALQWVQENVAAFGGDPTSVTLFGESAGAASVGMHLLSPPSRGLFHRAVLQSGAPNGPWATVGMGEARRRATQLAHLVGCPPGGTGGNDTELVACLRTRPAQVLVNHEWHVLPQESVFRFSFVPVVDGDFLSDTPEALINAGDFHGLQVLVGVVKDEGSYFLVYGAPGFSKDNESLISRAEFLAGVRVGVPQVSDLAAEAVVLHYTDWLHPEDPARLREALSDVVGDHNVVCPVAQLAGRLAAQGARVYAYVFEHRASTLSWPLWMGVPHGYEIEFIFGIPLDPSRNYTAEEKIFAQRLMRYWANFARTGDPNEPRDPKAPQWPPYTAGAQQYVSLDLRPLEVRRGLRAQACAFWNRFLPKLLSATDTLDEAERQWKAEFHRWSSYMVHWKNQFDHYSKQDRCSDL
Put plainly: hrAChE inhibition, Ellman method (screening and IC50). The following applies: for hrAChE inhibition (screening, in words): screening at 1 and 10 µM; for inhibition at 10 µM: read-out: hrAChE inhibition; for IC50: mean ± standard error of the mean, triplicate determinations. As to the method: (§1) The hrAChE and hrBuChE were prepared as recombinant proteins at the University of Hradec Kralove. For their production, the mammalian expression system was used. Briefly, the DNA sequence encoding human AChE and BuChE was obtained from UniProtKB Server (www.uniprot.org, accession numbers: P22303 and P06276) and de novo synthesized as GeneArt Strings DNA fragments by GeneArt Gene Synthesis Service (Thermo Fisher Scientific, Pardubice, Czech Republic). The DNA fragments were PCR-amplified using gene-specific primers, adding the DNA sequence for C-terminal 6× His-tag. The amplicons were inserted into the mammalian pcDNA3.4 vector by TOPO cloning technology, and the final DNA constructs were verified by Sanger sequencing (ABI PRISM 3130xl). For protein expression, the DNA constructs were transiently transfected into Hek293 derivatives. Recombinant proteins were collected from culture supernatant 6 days later and stored at −80 °C for further purification.
(§2) The hrAChE and hrBuChE were purified using a NGC Medium-Pressure Chromatography System (Bio-Rad, USA). The total volume of 6–8 mL of medium containing secreted protein was desalted using 5 mL HiTrap Desalting column (GE Healthcare, Prague, Czech Republic) equilibrated with buffer A (20 mM sodium phosphate buffer, 150 mM NaCl, 15 mM imidazole, and 20% glycerol; pH 7.4). Acquired supernatant was loaded onto a 1 mL HisTrap FF column (GE Healthcare, Prague, Czech Republic) equilibrated with buffer A. Captured proteins were eluted with buffer B (20 mM sodium phosphate buffer, 150 mM NaCl, 500 mM imidazole, and 20% glycerol; pH 7.4). Imidazole was subsequently removed by repeated centrifugation in Amicon Ultra-4 (Ultracel-10K) tube (Merck Millipore). Protein concentration was determined by linearized Bradford method adapted for 96-well plate.
(§3) The catalytic activity of enzymes was determined by standard Ellman method adapted for 96-well plates. […]. The mixture was pre-incubated at 37 °C for 15 min, and subsequently substrate acetylthiocholine iodide (ATChI) or butyrylthiocholine iodide (BuTChI) was added to the final concentration of 1000 µM. The final volume of reaction was 100 µL. The product formed during the reaction 5-thio-2-nitrobenzoic acid (TNB) was determined by following its absorbance at 436 nm. The catalytic activity was evaluated as amount of product (%) formed by enzyme after 10 min of incubation at 37 °C. IC50 values of individual compounds were determined by non-linear regression using GraphPad Prism 7.
For orientation: Ellman's reagent forms a yellow product with free thiols.

The target in assay [2] is T2, human recombinant butyrylcholinesterase (hrBuChE) (Homo sapiens, UniProt P06276).
T2 construct: made in house; host or cells: Hek293 derivatives (transient transfection, pcDNA3.4), collected from culture supernatant
T2 sequence (P06276 29-602): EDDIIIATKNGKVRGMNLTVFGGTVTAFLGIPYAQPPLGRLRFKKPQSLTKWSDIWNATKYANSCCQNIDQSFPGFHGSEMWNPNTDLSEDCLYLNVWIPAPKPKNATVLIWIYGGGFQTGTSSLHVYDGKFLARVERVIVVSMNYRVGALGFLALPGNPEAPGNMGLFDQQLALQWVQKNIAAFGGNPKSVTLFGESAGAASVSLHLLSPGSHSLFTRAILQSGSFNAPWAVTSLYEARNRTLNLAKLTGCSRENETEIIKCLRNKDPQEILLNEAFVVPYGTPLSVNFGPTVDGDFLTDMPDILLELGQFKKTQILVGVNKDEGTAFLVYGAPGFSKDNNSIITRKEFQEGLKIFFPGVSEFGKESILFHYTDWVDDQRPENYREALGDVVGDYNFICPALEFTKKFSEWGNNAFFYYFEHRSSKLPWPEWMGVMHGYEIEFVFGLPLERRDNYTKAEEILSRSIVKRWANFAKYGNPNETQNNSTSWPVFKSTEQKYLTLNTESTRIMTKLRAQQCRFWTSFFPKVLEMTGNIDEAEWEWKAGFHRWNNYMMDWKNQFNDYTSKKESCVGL
As to the kind of experiment: hrBuChE inhibition, Ellman method (screening and IC50). The following applies: for inhibition at 10 µM: at 10 µM concentration; for IC50: mean ± standard error of the mean, triplicate determinations. As to the method:
as §1, §2, §3

The next assay has as its target T3, hrAChE (Homo sapiens, UniProt P22303).
T3 construct: made in house; host or cells: Hek293 derivatives (transient transfection, pcDNA3.4), collected from culture supernatant
As to the kind of experiment: Inhibition kinetics of hrAChE (Lineweaver-Burk). As to the method: Compound with the highest inhibition potential against hrAChE was further analysed regarding its inhibition kinetics parameters (inhibition mechanism and inhibitory constant). […]. Inhibition mechanism and kinetic constant were determined by non-linear regression and double reciprocal method by Lineweaver-Burk using GraphPad Prism 7.

Where two headings read alike, the source gives them in different places.

T3 sequence (P22303 32-614): as the sequence (P22303 32-614) above

Turning to `CN1CCN(CCCCOc2ccc3ccc(=O)[nH]c3c2)CC1` [QN4, 7-[4-(4-Methylpiperazin-1-yl)butoxy]quinolin-2(1H)-one], the “hrAChE inhibition (screening, in words)” value in assay [1] was “low inhibition percentage”.
Same read-out and setting: the result for `CN1CCN(CCCCCOc2ccc3ccc(=O)[nH]c3c2)CC1` [QN5, 7-[5-(4-Methylpiperazin-1-yl)pentyloxy]quinolin-2(1H)-one] reads “low inhibition percentage”.
For `CC(C)N1CCN(CCCCCOc2ccc3ccc(=O)[nH]c3c2)CC1` [QN9, 7-[5-(4-Isopropylpiperazin-1-yl)pentyloxy]quinolin-2(1H)-one], in assay [1], the “Selectivity Index IC50 (hrBuChE)/IC50 (hrAChE)” value (from here on “Selectivity Index IC50”) is 7 and the IC50 (commonly the point on the concentration scale where inhibition reaches its midpoint) was determined as 960 ± 40 nM. For the same molecule, the inhibition (usually the percentage by which the read-out fell short of the control) at 10 µM in assay [1] (at 10 µM concentration) was 88 to 95%. In assay [2], the inhibition at 10 µM fell in the range of 45 to 65% and the concentration for half-maximal inhibition (IC50) worked out at 6700 ± 320 nM.
In the case of `CN1CCN(CCCCOc2ccc3c(c2)NC(=O)CC3)CC1` [DQN3, 7-[4-(4-Methylpiperazin-1-yl)butoxy]-3,4-dihydroquinolin-2(1H)-one], the “hrAChE inhibition (screening, in words)” value in assay [1] is “low inhibition percentage”.
Consider `CC(C)N1CCN(CCCCOc2ccc3ccc(=O)[nH]c3c2)CC1` [QN8, 7-[4-(4-Isopropylpiperazin-1-yl)butoxy]quinolin-2(1H)-one], for which the “type of hrAChE inhibition” value on hrAChE (kinetic experiments) was “non-competitive”. Further, on hrAChE (non-competitive inhibition, ATChI 25-2000 µM), the Ki (in general, a dissociation constant, usually derived from enzyme kinetics or from competition with a known ligand) turned out to be 79 nM. In assay [1], the “Selectivity Index IC50” value came to 44 and the IC50 came to 290 ± 20 nM. Besides, the inhibition at 10 µM in assay [1] (at 10 µM concentration) lay in the range of 88 to 95%. In assay [2], the inhibition at 10 µM lay within 45 to 65% and the IC50 was 12700 ± 450 nM.
As to `CC(C)N1CCN(CCCCOc2ccc3c(c2)NC(=O)CC3)CC1` [DQN7, 7-[4-(4-Isopropylpiperazin-1-yl)butoxy]-3,4-dihydroquinolin-2(1H)-one], in assay [1], the “Selectivity Index IC50” value is listed as 11, the IC50 is 1580 ± 150 nM and the inhibition at 10 µM lay in the range of 88 to 95%. Further, in assay [2], the inhibition at 10 µM was 45 to 65% and the IC50 amounted to 16700 ± 460 nM.
